In patent publication US4016280A, “4,4-Diarylpiperidine compositions and use” (Byk Gulden Lomberg Chemische Fabrik GmbH, priority 1969, dated 1977):
Read-outs that look alike come from different tables or passages of the source.

Experiments:
[1] = tested on: albino mouse; assay: Antagonism in the albino mouse of tremorine tremor; format: in vivo; conditions: tremorine 15 mg/kg i.p., drug per os, Examples 28, 29: 50 to 300 mg/kg
Protocol: (§1) Antagonism in the albino mouse
(§2) of tion dation p.o.) i.p.)
(§3) *drugs administered per os
(§4) **administered in doses from 50 to 300 mg/kg

[2] = Potentiation of the effect of hexobarbital; conditions: in vivo
Description: (§5) These compounds are useful as neuroleptics.

[3] = tested on: albino mouse; assay: Acute toxicity in the albino mouse; conditions: mouse, in vivo
Protocol: (§6) As stated above, the compounds of formula I have advantageous central nervous system stimulating properties. Side-effects, as they are encountered on administration of amphetamine-type stimulants, are produced to a much lesser extent by the 4,4-diphenylpiperidine compounds, if at all. […] The tests were carried out according to known and accepted pharmacological standard test methods.
(§7) a Acute toxicity 150 mg./kg. 100 mg./kg.

[4] = tested on: albino mouse; assay: General behaviour of the albino mouse with different doses; format: in vivo; conditions: for Vigilance of the animal (in words) / Locomotory activity / Restlessness Stereotype / Salivation / Vigilance: albino mouse; for Locomotory activity / Restlessness Stereotype / Salivation / Vigilance: different doses per os, Examples 28, 29: 50 to 300 mg/kg; for Sedation of animals (in words): mouse, in vivo
Protocol: Acute toxi- General behaviour of the albino
city in the mouse with different doses*
as §3, §4

[5] = tested on: albino mouse; assay: Antagonism in the albino mouse of perphenazine catalepsy; format: in vivo; conditions: for ED50: Mus musculus, po, perphenazine 10 mg/kg p.o., drug per os, Examples 28, 29: 50 to 300 mg/kg; for Anticataleptic action (in words): mouse, in vivo
Protocol: as §1
(§8) Com- Preventive Curative catalepsy
as §2, §3, §4

[6] = Neuroleptic effects; conditions: in vivo
Description: as §5

[7] = tested on: albino mouse; assay: Antagonism in the albino mouse of reserpine (preventive and curative ptosis/sedation); format: in vivo; conditions: reserpine 2mg/kg sc.; for ED50: Mus musculus, po
Protocol: as §1, §8, §2, §3, §4

[8] = Acute toxicity in the albino mouse; conditions: mouse, in vivo, Table 2
Protocol: as §6, §7

[9] = Potentiating effect on noradrenaline; conditions: in vivo
Protocol: as §6

[10] = tested on: albino mouse; assay: Saliva secretion; format: in vivo
Protocol: as §6
No secretion Pronounced

[11] = Increase in blood pressure; format: in vivo; conditions: rats and dogs
Protocol: as §6
pressure (rats and increase

[12] = tested on: albino mouse; assay: Locomotory activity (restlessness in movements); format: in vivo; conditions: albino mouse 5 mg/kg. perorally
Protocol: as §6

[13] = Tachyphylaxis; conditions: in vivo
Protocol: as §6
g Tachyphylaxis None Pronounced

[14] = Exophthalmus; conditions: in vivo
Protocol: as §6
f Exophthalmus Absent Present

[15] = doses from 50 to 300 mg/kg per os
[16] = 18 h, doses from 50 to 300 mg/kg per os
[17] = 18 h, doses from 50 to 300 mg/kg per os, read-out: Reserpine antagonism, Preventive Sedation ED50, 18 h
[18] = drug per os, Examples 28, 29: 50 to 300 mg/kg
[19] = po, p.o., read-out: Acute toxicity in the albino mouse LD50 p.o.

| SMILES | Tremorine tremor antagonism ED50 [1] | Effect on hexobarbital (in words) [2] | Acute toxicity (in words) [3] | Vigilance of the animal (in words) [4] | Locomotory activity [4] | Restlessness Stereotype [4] | Salivation [4] | Vigilance [4] | Sedation of animals (in words) [4] | ED50 [5] [mg/kg] | Anticataleptic action (in words) [5] | Neuroleptic effects (in words) [6] | Reserpine antagonism, Preventive Sedation ED50, 3 h [7, 15] | Reserpine antagonism, Preventive ptosis ED50, 3 h [7, 15] | Reserpine antagonism, Preventive ptosis ED50, 18 h [7, 16] | ED50 [7, 17] [mg/kg] | Reserpine antagonism, Curative Sedation ED50 [7, 18] | Reserpine antagonism, Curative ptosis ED50 [7, 18] | LD50 [8, 19] [mg/kg] | further results |
| --- | --- | --- | --- | --- | --- | --- | --- | --- | --- | --- | --- | --- | --- | --- | --- | --- | --- | --- | --- | --- |
| O=C(CCCN1CCC(c2ccccc2)(c2ccccc2)CC1)c1ccccc1 [Example 29, 1-(3-Benzoylpropyl)-4,4-diphenylpiperidine] | .phi. (no effect) | potentiate the effect of hexobarbital | very low acute toxicity | somewhat reduce vigilance | - (decrease) | .phi. (no effect) | .phi. (no effect) | - (decrease) | induce sedation | 50 | exhibit anticataleptic action | exhibit neuroleptic effects | .phi. (no effect) | .phi. (no effect) | .phi. (no effect) | 100 | .phi. (no effect) | .phi. (no effect) |  |  |
| CC(C)N1CCC(c2ccccc2)(c2ccccc2)CC1 [Example 4, 1-Isopropyl-4,4-diphenylpiperidine] |  |  |  |  | (+) | .phi. (no effect) | .phi. (no effect) | ++ |  | 7 |  |  |  |  |  |  |  |  | 150 | ED50 ([1]; Mus musculus, po): 1.5 mg/kg; LD50 ([8]; iv, i.v., read-out: Acute toxicity in the albino mouse LD50 i.v.): 20 mg/kg; Potentiating effect on noradrenaline [9]: Present; Saliva secretion [10]: No secretion; Increase in blood pressure [11]: Slight increase; Locomotory activity (restlessness in movements), increase by [12]: 20%; Tachyphylaxis [13]: None; Exophthalmus [14]: Absent; ED50 ([7]; drug per os, Examples 28, 29: 50 to 300 mg/kg, read-out: Reserpine antagonism, Curative Sedation ED50): 13 mg/kg; ED50 ([7]; drug per os, Examples 28, 29: 50 to 300 mg/kg, read-out: Reserpine antagonism, Curative ptosis ED50): > 50 mg/kg; ED50 ([7]; drug per os, read-out: Reserpine antagonism, Preventive Sedation ED50): 3 mg/kg; ED50 ([7]; drug per os, read-out: Reserpine antagonism, Preventive ptosis ED50): 16 mg/kg |
| O=C(CCCN1CCC(c2ccccc2)(c2ccccc2)CC1)c1ccc(F)cc1 [Example 28, 1-[3-(p-Fluorobenzoyl)propyl]-4,4-diphenylpiperidine] | .phi. (no effect) | potentiate the effect of hexobarbital | very low acute toxicity | somewhat reduce vigilance | - (decrease) | .phi. (no effect) | .phi. (no effect) | - (decrease) | induce sedation | 50 | exhibit anticataleptic action | exhibit neuroleptic effects | .phi. (no effect) | .phi. (no effect) | .phi. (no effect) | 300 | .phi. (no effect) | .phi. (no effect) | 3800 |  |
